The supplement of paper PMC11061612

Experiments:
Experiment in all cases: combination Emax (second highest fraction inhibited in the dose matrix, 72 h); higher = more inhibition; extreme values may be limits of the assay
NCI-H2369 (Mesothelioma) = test system: NCI-H2369 (Mesothelioma)
Procedure, shortened: (§1)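 Bliss excess equals the observed combination effect minus the expected value EA + EB − EA·EB, where EA and EB are the effects of each agent alone. Combination Emax is the second-highest inhibition within the matrix. Inhibition was scaled from CellTiter-Glo 2.0 luminescence, with 0 set by vehicle wells and 1 by blank wells, after 72 hours of two-drug dosing of cells plated in 1536-well plates.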

[1] = test system: HT-29 (Colorectal Carcinoma)
Procedure, shortened: as §1

[2] = test system: DOV13 (Ovarian Carcinoma)
Procedure, shortened: as §1

[3] = test system: HPAC (Pancreatic Carcinoma)
Procedure, shortened: as §1

IGR-1 (Melanoma) = test system: IGR-1 (Melanoma)
Procedure, shortened: as §1

[4] = test system: SW1783 (Low Grade Glioma)
Procedure, shortened: as §1

[5] = test system: SW780 (Bladder Carcinoma)
Procedure, shortened: as §1

[6] = test system: DB (B-Cell Non-Hodgkin's Lymphoma)
Procedure, shortened: as §1

[7] = test system: SNU-C5 (Colorectal Carcinoma)
Procedure, shortened: as §1

[8] = test system: LS-513 (Colorectal Carcinoma)
Procedure, shortened: as §1

[9] = test system: MDA-MB-157 (Breast Carcinoma)
Procedure, shortened: as §1

[10] = test system: G-292-Clone-A141B1 (Osteosarcoma)
Procedure, shortened: as §1

[11] = test system: CTV-1 (T-Lymphoblastic Leukemia)
Procedure, shortened: as §1

CAL-78 (Chondrosarcoma) = test system: CAL-78 (Chondrosarcoma)
Procedure, shortened: as §1

[12] = test system: SW756 (Cervical Carcinoma)
Procedure, shortened: as §1

[13] = test system: COR-L95 (Small Cell Lung Carcinoma)
Procedure, shortened: as §1

NCI-H2595 (Mesothelioma) = test system: NCI-H2595 (Mesothelioma)
Procedure, shortened: as §1

[14] = test system: KATOIII (Gastric Carcinoma)
Procedure, shortened: as §1

[15] = test system: NCI-H1793 (Lung Adenocarcinoma)
Procedure, shortened: as §1

[16] = test system: KM-H2 (Hodgkin's Lymphoma)
Procedure, shortened: as §1

Structure (SMILES) | combination Emax [16] | combination Emax (NCI-H2369 (Mesothelioma)) | combination Emax [1] | combination Emax [2] | combination Emax [3] | combination Emax (IGR-1 (Melanoma)) | combination Emax [4] | combination Emax [5] | combination Emax [6] | combination Emax [7] | combination Emax [8] | combination Emax [9] | combination Emax [10] | combination Emax [11] | combination Emax (CAL-78 (Chondrosarcoma)) | combination Emax [12] | combination Emax [13] | combination Emax (NCI-H2595 (Mesothelioma)) | combination Emax [14] | combination Emax [15]
COc1nnc2ccc(N3CCC(c4ccc(OCCN5CCN(C)C(=O)[C@H]5C)cc4)CC3)nn12 [AZD5153] + CCN(CCO)CCCOc1ccc2c(Nc3cc(CC(=O)Nc4cccc(F)c4)[nH]n3)ncnc2c1 [AZD2811] (first compound max 1 µM, 7x7, partner max 1 µM) | 0.351 | 0.344 | 0.72 | 0.676 | 0.649 | 0.522 | 0.328 | 0.339 | 0.722 | 0.517 | 0.602 | 0.54 | 0.366 | 0.974 | 0.486 | 0.386 | 0.308 | 0.465 | 0.31 | 0.278
COc1nnc2ccc(N3CCC(c4ccc(OCCN5CCN(C)C(=O)[C@H]5C)cc4)CC3)nn12 [AZD5153] + Cc1c2c(nn1C)CSCc1cc(n(C)n1)CSc1cc(c3ccccc3c1)OCCCc1c(C(=O)O)n(C)c3c-2c(Cl)ccc13 [AZD5991] (first compound max 1 µM, 7x7, partner max 1 µM) | 0.451 | 0.337 | 0.716 | 0.487 | 0.628 | 0.752 | 0.336 | 0.365 | 1 | 0.56 | 0.644 | 0.993 | 0.387 | 0.939 | 0.749 | 0.367 | 0.371 | 0.602 | 0.324 | 0.288
Cn1cnc2c(F)c(Nc3ccc(Br)cc3Cl)c(C(=O)NOCCO)cc21 [Selumetinib] + C=CCn1c(=O)c2cnc(Nc3ccc(N4CCN(C)CC4)cc3)nc2n1-c1cccc(C(C)(C)O)n1 [AZD1775] (first compound max 10 µM, partner max 1 µM) | 0.926 | 0.276 | 0.889 | 0.637 | 0.877 | 0.578 | 0.392 | 0.369 | 0.793 | 0.722 | 0.904 | 0.48 | 0.102 | 0.963 | 0.544 | 0.346 | 0.32 | 0.18 | 0.451 | 0.423
Cc1c2c(nn1C)CSCc1cc(n(C)n1)CSc1cc(c3ccccc3c1)OCCCc1c(C(=O)O)n(C)c3c-2c(Cl)ccc13 [AZD5991] + C[C@@H](Nc1cc(F)cc(F)c1)c1cc(C(=O)N(C)C)cc2c(=O)cc(N3CCOCC3)oc12 [AZD8186] (first compound max 1 µM, 7x7, partner max 3 µM) | 0.11 | 0.24 | 0.24 | 0.381 | 0.378 | 0.28 | 0.4 | 0.228 | 0.974 | 0.254 | 0.255 | 0.876 | 0.415 | 0.143 | 0.875 | 0.217 | 0.346 | 0.336 | 0.175 | 0.263
COc1nnc2ccc(N3CCC(c4ccc(OCCN5CCN(C)C(=O)[C@H]5C)cc4)CC3)nn12 [AZD5153] + C[C@@H]1COCCN1C2=NC(=NC(=C2)C3(CC3)[S@](=N)(=O)C)C4=C5C=CNC5=NC=C4 [AZD6738] (first compound max 1 µM, 7x7, partner max 10 µM) | 0.89 | 0.363 | 0.863 | 0.923 | 0.71 | 0.728 | 0.515 | 0.465 | 0.811 | 0.816 | 0.755 | 0.913 | 0.458 | 0.987 | 0.515 | 0.447 | 0.547 | 0.461 | 0.553 | 0.629

More lines, main results first:

combination Emax [16] | Structure (SMILES) | combination Emax (NCI-H2369 (Mesothelioma)) | combination Emax [1] | combination Emax [2] | combination Emax [3] | combination Emax (IGR-1 (Melanoma)) | combination Emax [4] | combination Emax [5] | combination Emax [6] | combination Emax [7] | combination Emax [8] | combination Emax [9] | combination Emax [10] | combination Emax [11] | combination Emax (CAL-78 (Chondrosarcoma)) | combination Emax [12] | combination Emax [13] | combination Emax (NCI-H2595 (Mesothelioma)) | combination Emax [14] | combination Emax [15]
0.206 | CC1(C)CCC(CN2CCN(c3ccc(C(=O)NS(=O)(=O)c4ccc(NCC5CCOCC5)c([N+](=O)[O-])c4)c(Oc4cnc5[nH]ccc5c4)c3)CC2)=C(c2ccc(Cl)cc2)C1 [Venetoclax] + CN(C)CCCOc1ccc(-c2ccc3ncc4c(c3c2)n(C2CCOCC2)c(=O)n4C)cn1 [AZD0156] (first compound max 1 µM, 7x7, partner max 1 µM) | 0.194 | 0.233 | 0.326 | 0.26 | 0.211 | 0.24 | 0.212 | 0.971 | 0.185 | 0.316 | 0.596 | 0.273 | 0.0786 | 0.248 | 0.158 | 0.535 | 0.177 | 0.154 | 0.248
0.961 | C=CCn1c(=O)c2cnc(Nc3ccc(N4CCN(C)CC4)cc3)nc2n1-c1cccc(C(C)(C)O)n1 [AZD1775] + C[C@@H]1COCCN1C2=NC(=NC(=C2)C3(CC3)[S@](=N)(=O)C)C4=C5C=CNC5=NC=C4 [AZD6738] (first compound max 1 µM, partner max 10 µM) | 0.336 | 0.858 | 0.928 | 0.705 | 0.538 | 0.41 | 0.246 | 0.934 | 0.794 | 0.87 | 0.947 | 0.354 | 0.993 | 0.839 | 0.425 | 0.737 | 0.266 | 0.507 | 0.548
0.546 | NC1(C(=O)N[C@@H](CCO)c2ccc(Cl)cc2)CCN(c2ncnc3[nH]ccc23)CC1 [Capivasertib] + COc1nnc2ccc(N3CCC(c4ccc(OCCN5CCN(C)C(=O)[C@H]5C)cc4)CC3)nn12 [AZD5153] (first compound max 10 µM, 7x7, partner max 1 µM) | 0.268 | 0.753 | 0.535 | 0.68 | 0.406 | 0.473 | 0.226 | 0.669 | 0.665 | 0.641 | 0.389 | 0.573 | 1 | 0.489 | 0.413 | 0.399 | 0.301 | 0.201 | 0.37
0.161 | CC1(C)CCC(CN2CCN(c3ccc(C(=O)NS(=O)(=O)c4ccc(NCC5CCOCC5)c([N+](=O)[O-])c4)c(Oc4cnc5[nH]ccc5c4)c3)CC2)=C(c2ccc(Cl)cc2)C1 [Venetoclax] + Cc1cc2ncnn2cc1Nc1ncc2c(n1)n(C1CCOCC1)c(=O)n2C [AZD7648] (first compound max 1 µM, 7x7, partner max 10 µM) | 0.164 | 0.205 | 0.476 | 0.288 | 0.174 | 0.237 | 0.163 | 0.957 | 0.261 | 0.192 | 0.571 | 0.221 | 0.362 | 0.234 | 0.195 | 0.607 | 0.228 | 0.214 | 0.41
0.327 | CN(C)CCCOc1ccc(-c2ccc3ncc4c(c3c2)n(C2CCOCC2)c(=O)n4C)cn1 [AZD0156] + CCN(CCO)CCCOc1ccc2c(Nc3cc(CC(=O)Nc4cccc(F)c4)[nH]n3)ncnc2c1 [AZD2811] (first compound max 1 µM, 7x7, partner max 1 µM) | 0.0791 | 0.166 | 0.493 | 0.206 | 0.135 | 0.0598 | 0.205 | 0.559 | 0.224 | 0.508 | 0.153 | 0.111 | 0.234 | 0.193 | 0.125 | 0.208 | 0.108 | 0.0129 | 0.182
0.153 | CC1(C)CCC(CN2CCN(c3ccc(C(=O)NS(=O)(=O)c4ccc(NCC5CCOCC5)c([N+](=O)[O-])c4)c(Oc4cnc5[nH]ccc5c4)c3)CC2)=C(c2ccc(Cl)cc2)C1 [Venetoclax] + C1CN(CCC1(C(=O)N[C@@H](CCO)C2=CC=C(C=C2)Cl)N)C3=NC=NC4=C3C=CN4 [Capivasertib] (first compound max 1 µM, 7x7, partner max 3 µM) | 0.134 | 0.254 | 0.353 | 0.148 | 0.193 | 0.342 | 0.163 | 0.941 | 0.318 | 0.335 | 0.535 | 0.273 | 0.359 | 0.263 | 0.195 | 0.719 | 0.235 | 0.254 | 0.221
0.305 | CC1(C)CCC(CN2CCN(c3ccc(C(=O)NS(=O)(=O)c4ccc(NCC5CCOCC5)c([N+](=O)[O-])c4)c(Oc4cnc5[nH]ccc5c4)c3)CC2)=C(c2ccc(Cl)cc2)C1 [Venetoclax] + CCN(CCO)CCCOc1ccc2c(Nc3cc(CC(=O)Nc4cccc(F)c4)[nH]n3)ncnc2c1 [AZD2811] (first compound max 1 µM, 7x7, partner max 1 µM) | 0.173 | 0.214 | 0.523 | 0.361 | 0.349 | 0.333 | 0.193 | 0.965 | 0.19 | 0.399 | 0.56 | 0.235 | 0.184 | 0.328 | 0.158 | 0.743 | 0.611 | 0.17 | 0.234
